Type in all cases: cell-based
For series [1], the target named is T1, human Nav1.5 (Homo sapiens (Human), UniProt Q14524). Put plainly: Qpatch automated patch-clamp, peak Nav1.5 current inhibition, 5-Hz AF-like assay (holding potential -85 mV). Particulars: CHO-K1 cells stably expressing human Nav1.5, holding potential -85 mV, Table 5, read-out: Nav1.5 IC50 (5 Hz, AF Rate). Put shortly:
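CHO-K1 cells stably expressing human Nav1.5, whole-cell automated patch-clamp at room temperature, CsF-based internal. Compounds pre-incubated 3 min each at ascending 0-30 μM; +10 to −85 mV ramp (150 ms) applied at 5 Hz for 12 s from −85 mV holding. IC50 from last-pulse peak current, vehicle-normalized for run-down.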
(The patch-clamp technique gives a direct electrical read-out from membranes.)

Series [2] has as its target T1, human Nav1.5. The series is described as follows: Qpatch automated patch-clamp, peak Nav1.5 current inhibition, 1 Hz sinus rate, ventricular condition (holding potential -100 mV). Particulars: CHO-K1 cells stably expressing human Nav1.5, without ATX-II. The source says:
(§1) Electrophysiology was used to measure the ionic currents in isolated living cells using automated patch-clamp recording, performed using an automated patch-clamp machine called Qpatch (Sophion Bioscience). Two different assay conditions were used to identify compounds with atrial-selective potential. The 5-Hz AF-like assay has more depolarized holding potential at −85 mV to mimic atrial resting membrane potential (RMP) and was used to identify compounds of strong rate-dependence. Active, rate-dependent compounds were then screened at 1 Hz (i.e., sinus rate) at the holding potential of −100 mV to mimic the ventricular scenario and help identify compounds with the largest potency separation or attenuation from the 5-Hz AF-like assay. Such compounds have the potential for treating AF without the QRS liability inherent to Class Ic drugs.
(§2) The sodium current conducted through a cell (via Nav1.5) or electrical signals were processed through a low-pass filter at 5 KHz, re-digitalized and acquired at 20 kHz. Series resistance was not compensated and leak subtraction was performed.
(§3) 1 to 3 million Chinese Hamster Ovary cells (also known as CHO-K1) stably expressing human Nav1.5 were seeded into […] culture flasks with 25 mL medium (consisting of Gibco Dulbecco's Modified Eagle Medium as a base medium with 1% MEM non-essential amino acids, 400 μg/mL Geneticin, 5 μg/mL puromycin and 10% fetal bovine serum) 48-72 hours prior to the experiments. On the day of the experiment, cells were washed once with phosphate-buffered saline (also known as PBS; Gibco) detached with Detachin™ (Genlantis), and re-suspended in CHO—S-SFM II media (Gibco) at 200,000 cells/mL. The CHO—S-SFM II was replaced with assay solutions prior to the assays. Whole-cell currents were recorded at room temperature in the whole-cell configuration. The external aqueous assay solution (pH=7.4; Osm=307-315) contained the following (the concentration for each component is expressed in parentheses in mM): NaCl (140 mM), KCl (4 mM), CaCl2) (2 mM), MgCl2 (1 mM), 4-(2-hydroxyethyl)-1-piperazineethanesulfonic acid, also known as HEPES (10 mM), and glucose (5 mM). The internal aqueous assay solution (pH=7.2; Osm=292-295) contained the following (the concentration for each component is expressed in parentheses in mM): CsF (110 mM), CsCl (10 mM), NaCl (10 mM), HEPES (10 mM), and ethylene glycolbis(β-aminoethyl ether)-N,N,N′,N′-tetraacetic acid, also known as EGTA (10 mM).
(§4) To assess peak Nav1.5 current inhibition mimicking a ventricular condition at sinus rate with or without ATX-II (Nav1.5 IC50 (1 Hz, ATXII) (μM) or (1 Hz, Sinus Rate) (μM)), compounds were first prepared at 10 mM in DMSO, and cells were pre-incubated with test compounds at each concentration for 3 min. in an ascending order of 0, 0.37, 1.1, 3.3, 10 and 30 uM. In the assay with ATX-II (Alomone Labs), 50 nM ATX-II was included during the 3-min. compound incubation. A square pulse (−10 mV; 400 ms and a holding potential at −100 mV) was run at 1 Hz for 25 s until no further inhibition or Nav1.5 current change was observed. The percent inhibition (expressed as ([Iafter compound treatment/Ibefore compound treatment]×100%) is calculated by normalizing the peak current amplitude at the last pulse of each of the 6 compound concentrations by the amplitude before exposure to the test compound. The compiled data was further normalized by vehicle control (DMSO) to account for Nav1.5 current run-down, and IC50 was calculated by Matlab (MathWorks, USA).

The target of series [3] is T1, human Nav1.5. Put plainly: Qpatch automated patch-clamp, peak Nav1.5 current inhibition, 1 Hz with 50 nM ATX-II (holding potential -100 mV). The note with it: CHO-K1 cells stably expressing human Nav1.5, read-out: Nav1.5 IC50 (1 Hz, ATXII).
Excerpt: as §1, §2, §3, §4

T1 sequence (Q14524 whole entry): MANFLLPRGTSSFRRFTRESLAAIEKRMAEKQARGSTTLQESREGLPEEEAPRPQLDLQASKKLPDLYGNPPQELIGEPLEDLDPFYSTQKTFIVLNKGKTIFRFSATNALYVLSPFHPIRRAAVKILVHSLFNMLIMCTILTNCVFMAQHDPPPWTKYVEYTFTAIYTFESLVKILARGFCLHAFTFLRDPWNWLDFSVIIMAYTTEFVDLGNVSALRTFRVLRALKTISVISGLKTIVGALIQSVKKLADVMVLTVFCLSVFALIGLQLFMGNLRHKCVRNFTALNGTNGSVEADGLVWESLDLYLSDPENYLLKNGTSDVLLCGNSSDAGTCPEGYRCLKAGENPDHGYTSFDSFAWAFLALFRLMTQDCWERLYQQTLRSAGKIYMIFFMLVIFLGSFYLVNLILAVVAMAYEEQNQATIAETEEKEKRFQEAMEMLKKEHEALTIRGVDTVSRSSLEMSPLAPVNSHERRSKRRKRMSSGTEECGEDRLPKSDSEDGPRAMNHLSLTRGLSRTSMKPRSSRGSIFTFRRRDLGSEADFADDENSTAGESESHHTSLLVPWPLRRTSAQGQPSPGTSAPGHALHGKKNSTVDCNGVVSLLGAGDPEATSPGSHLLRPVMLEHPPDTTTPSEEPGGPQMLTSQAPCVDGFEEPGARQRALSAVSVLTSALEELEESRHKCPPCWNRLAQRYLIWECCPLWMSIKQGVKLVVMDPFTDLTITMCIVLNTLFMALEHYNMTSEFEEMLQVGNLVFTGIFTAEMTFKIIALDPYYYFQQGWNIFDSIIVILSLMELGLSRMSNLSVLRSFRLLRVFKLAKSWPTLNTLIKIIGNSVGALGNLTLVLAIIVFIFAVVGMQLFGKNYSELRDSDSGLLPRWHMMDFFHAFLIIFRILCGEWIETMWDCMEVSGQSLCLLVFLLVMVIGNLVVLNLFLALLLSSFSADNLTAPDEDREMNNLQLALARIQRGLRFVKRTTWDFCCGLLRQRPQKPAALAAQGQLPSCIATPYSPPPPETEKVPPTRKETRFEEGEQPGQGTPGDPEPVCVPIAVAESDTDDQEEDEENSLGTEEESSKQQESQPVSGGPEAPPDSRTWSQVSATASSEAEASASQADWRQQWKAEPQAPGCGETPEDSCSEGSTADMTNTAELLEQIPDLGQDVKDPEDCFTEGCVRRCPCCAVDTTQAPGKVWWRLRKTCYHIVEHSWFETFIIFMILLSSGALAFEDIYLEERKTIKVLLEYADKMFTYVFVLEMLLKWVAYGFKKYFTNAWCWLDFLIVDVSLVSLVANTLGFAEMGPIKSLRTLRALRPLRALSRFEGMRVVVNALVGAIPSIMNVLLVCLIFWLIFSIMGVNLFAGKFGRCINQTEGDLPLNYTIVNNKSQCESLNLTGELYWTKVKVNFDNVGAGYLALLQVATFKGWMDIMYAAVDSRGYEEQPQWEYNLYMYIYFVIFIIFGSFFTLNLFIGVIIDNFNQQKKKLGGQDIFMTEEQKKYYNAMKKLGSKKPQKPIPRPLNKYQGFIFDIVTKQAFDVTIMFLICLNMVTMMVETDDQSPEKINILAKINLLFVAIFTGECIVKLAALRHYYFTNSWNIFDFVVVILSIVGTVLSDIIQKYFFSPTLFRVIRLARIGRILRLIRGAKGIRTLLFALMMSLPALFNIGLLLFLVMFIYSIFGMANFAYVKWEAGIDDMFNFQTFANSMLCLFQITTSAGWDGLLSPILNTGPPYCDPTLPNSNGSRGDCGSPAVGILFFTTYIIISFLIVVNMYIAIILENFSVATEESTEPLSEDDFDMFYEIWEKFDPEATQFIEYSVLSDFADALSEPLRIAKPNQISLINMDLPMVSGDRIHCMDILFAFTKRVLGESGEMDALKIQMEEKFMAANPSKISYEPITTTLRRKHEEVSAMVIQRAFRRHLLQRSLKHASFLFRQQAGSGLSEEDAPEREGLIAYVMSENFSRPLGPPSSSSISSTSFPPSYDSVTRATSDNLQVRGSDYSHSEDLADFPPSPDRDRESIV

In general, IC50 refers to the concentration needed to halve the response being measured. With `CC(O)(CS(N)(=O)=O)c1cccc(-c2ncn(Cc3cc(OC(F)(F)F)ccc3F)n2)n1` (racemic) [Rac-55 + 56, 2-(6-(1-(2-fluoro-5-(trifluoromethoxy)benzyl)-1H-1,2,4-triazol-3-yl)pyridin-2-yl)-2-hydroxypropane-1-sulfonamide], the IC50 is 4.5 µM at human Nav1.5 [1], > 30 µM on human Nav1.5 [2] and 17 µM on human Nav1.5 [3].
For the compound `CC(O)(CS(N)(=O)=O)c1ccc(Cl)c(-c2nnn(Cc3cc(OC(F)(F)F)ccc3F)n2)c1` (single isomer, unassigned) [Example 7, (R or S)-2-(4-chloro-3-(2-(2-fluoro-5-(trifluoromethoxy)benzyl)-2H-tetrazol-5-yl)phenyl)-2-hydroxypropane-1-sulfonamide], the figures for the IC50 at human Nav1.5 [1], against human Nav1.5 [2] and on human Nav1.5 [3] were 1.3 µM, 28 µM and 15 µM, respectively.
In the same order, the values of `CC(O)(CS(N)(=O)=O)c1ccc(Cl)c(-c2nnn(Cc3cc(OC(F)(F)F)ccc3F)n2)c1` (single isomer, unassigned) [Example 8, (R or S)-2-(4-chloro-3-(2-(2-fluoro-5-(trifluoromethoxy)benzyl)-2H-tetrazol-5-yl)phenyl)-2-hydroxypropane-1-sulfonamide] are 1.3 µM, > 30 µM and 28 µM.
Take `CC(O)(CS(N)(=O)=O)c1ccc(F)c(-c2nnn(Cc3cc(OC(F)(F)F)ccc3F)n2)c1` (single isomer, unassigned) [Example 9, (R or S)-2-(4-fluoro-3-(2-(2-fluoro-5-(trifluoromethoxy)benzyl)-2H-tetrazol-5-yl)phenyl)-2-hydroxypropane-1-sulfonamide]: the results for the half-inhibitory concentration (IC50) on human Nav1.5 [1], against human Nav1.5 [2] and at human Nav1.5 [3] were 4.1 µM, > 30 µM and > 30 µM, respectively.
In the case of `CC(O)(CS(N)(=O)=O)c1ccc(F)c(-c2nnn(Cc3cc(OC(F)(F)F)ccc3F)n2)c1` (single isomer, unassigned) [Example 10, (R or S)-2-(4-fluoro-3-(2-(2-fluoro-5-(trifluoromethoxy)benzyl)-2H-tetrazol-5-yl)phenyl)-2-hydroxypropane-1-sulfonamide], the IC50 was 1 µM on human Nav1.5 [1], > 30 µM at human Nav1.5 [2] and 11 µM on human Nav1.5 [3].
Turning to `CC(O)(CS(N)(=O)=O)c1cccc(-c2nnn(Cc3cc(OC(F)(F)F)ccc3F)n2)c1F` (single isomer, unassigned) [Example 11, (R or S)-2-(2-fluoro-3-(2-(2-fluoro-5-(trifluoromethoxy)benzyl)-2H-tetrazol-5-yl)phenyl)-2-hydroxypropane-1-sulfonamide], the results for the IC50 at human Nav1.5 [1], on human Nav1.5 [2] and at human Nav1.5 [3] were 1.7 µM, 8.9 µM and 5.6 µM, respectively.
Taken in the same sequence, the figures for `CC(O)(CS(N)(=O)=O)c1cccc(-c2nnn(Cc3cc(OC(F)(F)F)ccc3F)n2)c1F` (single isomer, unassigned) [Example 12, (R or S)-2-(2-fluoro-3-(2-(2-fluoro-5-(trifluoromethoxy)benzyl)-2H-tetrazol-5-yl)phenyl)-2-hydroxypropane-1-sulfonamide] were 4.2 µM, 10 µM and 5.2 µM.
In the same order, the values of `CC(C(C)(O)c1cccc(-c2nnn(Cc3cc(OC(F)(F)F)ccc3F)n2)n1)S(N)(=O)=O` (single isomer, unassigned) [Example 13, (2R or 2S, 3R or 3S)-3-(6-(2-(2-fluoro-5-(trifluoromethoxy)benzyl)-2H-tetrazol-5-yl)pyridin-2-yl)-3-hydroxybutane-2-sulfonamide] are 4.3 µM, 12 µM and > 30 µM.
`CC(c1cccc(-c2nnn(Cc3cc(OC(F)(F)F)ccc3F)n2)n1)C(CO)S(N)(=O)=O` (single isomer, unassigned) [Example 32, (2R or 2S,3R or 3S)-3-(6-(2-(2-fluoro-5-(trifluoromethoxy)benzyl)-2H-tetrazol-5-yl)pyridin-2-yl)-1-hydroxybutane-2-sulfonamide]: the IC50 at human Nav1.5 [1] is 2.7 µM; on human Nav1.5 [2] it was 28 µM.
In the same order, the values of `CC(c1cccc(-c2nnn(Cc3cc(OC(F)(F)F)ccc3F)n2)n1)C(CO)S(N)(=O)=O` (single isomer, unassigned) [Example 33, (2R or 2S,3R or 3S)-3-(6-(2-(2-fluoro-5-(trifluoromethoxy)benzyl)-2H-tetrazol-5-yl)pyridin-2-yl)-1-hydroxybutane-2-sulfonamide] are 1.3 µM and 6.7 µM.
Regarding `CC(c1cccc(-c2nnn(Cc3cc(OC(F)(F)F)ccc3F)n2)n1)C(CO)S(N)(=O)=O` (single isomer, unassigned) [Example 34, (2R or 2S, 3R or 3S)-3-(6-(2-(2-fluoro-5-(trifluoromethoxy)benzyl)-2H-tetrazol-5-yl)pyridin-2-yl)-1-hydroxybutane-2-sulfonamide], the IC50 on human Nav1.5 [1] was 2.2 µM; against human Nav1.5 [2] it was > 30 µM.
Taken in the same sequence, the figures for `CC(O)(CS(N)(=O)=O)c1cccc(-c2nnn(Cc3cccc(C(F)(F)F)c3)n2)n1` (single isomer, unassigned) [Example 40, (R or S)-2-hydroxy-2-(6-(2-(3-(trifluoromethyl)benzyl)-2H-tetrazol-5-yl)pyridin-2-yl)propane-1-sulfonamide] were 21 µM and > 30 µM.
Taken in the same sequence, the figures for `CC(O)(CS(N)(=O)=O)c1cccc(-c2nnn(Cc3cccc(C(F)(F)F)c3)n2)n1` (single isomer, unassigned) [Example 41, (R or S)-2-hydroxy-2-(6-(2-(3-(trifluoromethyl)benzyl)-2H-tetrazol-5-yl)pyridin-2-yl)propane-1-sulfonamide] were > 30 µM and > 30 µM.
With `CC(C(O)c1cccc(-c2nnn(Cc3cc(OC(F)(F)F)ccc3F)n2)n1)S(N)(=O)=O` (single isomer, unassigned) [Example 51, (JR or 1S,2R or 2S)-1-(6-(2-(2-fluoro-5-(trifluoromethoxy)benzyl)-2H-tetrazol-5-yl)pyridin-2-yl)-1-hydroxypropane-2-sulfonamide], the values for the IC50 at human Nav1.5 [1] and against human Nav1.5 [2] were 25 µM and > 30 µM, respectively.
In the same order, the values of `CC(O)(CS(N)(=O)=O)c1cccc(-c2ncn(Cc3cc(OC(F)(F)F)ccc3F)n2)n1` (single isomer, unassigned) [Example 55, (R or S)-2-(6-(1-(2-fluoro-5-(trifluoromethoxy)benzyl)-1H-1,2,4-triazol-3-yl)pyridin-2-yl)-2-hydroxypropane-1-sulfonamide] are 19 µM and > 30 µM.
With `CC(O)(CS(N)(=O)=O)c1cccc(-c2ncn(Cc3cc(OC(F)(F)F)ccc3F)n2)n1` (single isomer, unassigned) [Example 56, (R or S)-2-(6-(1-(2-fluoro-5-(trifluoromethoxy)benzyl)-1H-1,2,4-triazol-3-yl)pyridin-2-yl)-2-hydroxypropane-1-sulfonamide], the IC50 was 16 µM on human Nav1.5 [1] and > 30 µM against human Nav1.5 [2].

For the origin of these results see patent US20250034108A1, “SODIUM CHANNEL BLOCKERS” (NOVARTIS AG, priority 2023, published 2025).
